This note sets out measurements from patent US7572600B2, “Enzymatic activities in chemokine-mediated inflammation” (Chemocentryx, Inc., priority 2004, dated 2009).

Where no end group is shown, it is not given here.

What all share (format): cell-based
Test [1] has as its system human monocytes. Briefly: Chemotaxis of human monocytes. To be noted: undigested. As to the method:
Chemotaxis assay. L1.2-CCR1 transfectants, THP-1 cells, human monocytes and human neutrophils were collected by centrifugation and resuspended in HBSS containing 0.1% BSA. Chemotaxis assays were performed in 96-well ChemoTx® microplates (Neuroprobe, Rockville, Md.) as follows. Chemokines were added to the lower wells (final volume 29 μL), and 20 μL of cell suspension (5×10^6 cells/mL) was added to the polycarbonate filter (3 μm pore size for neutrophils, 5 μm for other 3 cell types). After incubation at 37° C. in the presence of 5% CO2 for 1 hr (neutrophils), 90 min (monocytes) or 2 h (THP-1 and L1.2-CCR1), cells were removed from the upper surface of the filter by scraping. Cells that migrated into the lower chamber were quantified by using the CyQuant cell proliferation assay kit (Molecular Probes, Eugene, Oreg.) and analyzed with a Tecan (Durham, N.C.) fluorimeter (excitation at 480 nm, emission at 530 nm). Data were analyzed and plotted in arbitrary units of fluorescence using Prism (GraphPad Software, San Diego, Calif.).
Chemotaxis assays. L1.2-CCR1 and L1.2-FPRL1 transfectants, monocytes and neutrophils were collected by centrifugation and resuspended in HBSS with 0.1% BSA. The assays were performed in 96-well ChemoTx® microplates (Neuroprobe, Rockville, Md.). Chemokines were diluted in HBSS with 0.1% BSA and added to the lower wells (final volume 29 μL), then 20 μL of cell suspension (5×10^6 cells/mL for monocytes; 2.5×10^6 cells/mL for neutrophils) were added to the polycarbonate filters (5 μm pore size for monocytes and FPRL1 transfectants; 3 μm pore size for neutrophils). After incubation for 90 min (37° C., 100% humidity, 5% CO2), the filters were removed and the cells that migrated into the lower chamber were quantified by using the CyQuant cell proliferation assay kit (Molecular Probes, Oreg.).

Test [2] concerns the target T1, FPRL1 (Homo sapiens, UniProt P25090).
T1 sequence (P25090 1-351): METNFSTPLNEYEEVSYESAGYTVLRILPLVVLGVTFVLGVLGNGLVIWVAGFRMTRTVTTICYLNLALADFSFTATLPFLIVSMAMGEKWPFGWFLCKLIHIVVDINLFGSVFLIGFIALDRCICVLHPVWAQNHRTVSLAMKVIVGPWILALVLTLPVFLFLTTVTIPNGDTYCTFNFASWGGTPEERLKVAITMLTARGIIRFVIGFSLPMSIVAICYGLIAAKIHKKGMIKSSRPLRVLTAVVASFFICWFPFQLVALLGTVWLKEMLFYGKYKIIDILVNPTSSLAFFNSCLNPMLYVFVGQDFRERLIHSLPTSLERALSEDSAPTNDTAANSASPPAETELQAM
The test is described as follows: Receptor signaling (calcium mobilization) in L1.2-FPRL1 cells. Particulars: for calcium mobilization in the FPRL1 transfectant: L1.2 cells stably expressing human FPRL1, undigested. Details: expressed in transfected cells. The protocol:
(§1) Receptor signaling assay. For individual measurements, cells were loaded for 45 min at room temperature with 2 μM indo-1/AM (Invitrogen, Carlsbad Calif.) in culture medium, then washed with 10 ml PBS and resuspended at 10^6 cells/ml in HBSS containing 0.1% BSA. Cytosolic calcium levels were determined using a Photon Technology International fluorimeter (excitation at 350 nm, ratio of dual emission at 400 and 490 nm). For measuring calcium dose responses, cells were analyzed with a Fluorometric Imaging Plate Reader 384 (FLIPR^384) (Molecular Devices, Sunnyvale, Calif.). Cells were loaded for 1 hr at 37° C. with 5 μM fluo-4 in HBSS with 0.1% BSA, then washed, transferred to black-wall 96-well plates, and subsequently excited at 505 nm with emission recorded at 530 nm with a standard protocol provided by the manufacture. Cells were stimulated with agonists 20 s after the monitoring of fluorescence began. Data were analyzed and plotted in arbitrary units of fluorescence using Prism. To ensure that responses were specific to FPRL1, we utilized a selective small-molecule antagonist of human FPRL1, generated by ChemoCentryx, which was optimized from a high throughput compound library screening approach.
Since FPRL1 has been reported to interact with low affinity and/or potency with a spectrum of potential pathogenic ligands of viral, bacterial and endogenous origin, we performed comparative functional analyses to determine the precise functional domain for the SHAAGtide (FIG. 14). SHAAGtides containing N-terminal and C-terminal truncations and extensions were synthesized, and potencies for receptor signaling in L1.2-FPRL1 cells were tested. […] After removal of the N-terminal amino acid (Met) from SHAAGtide, its potency is reduced approximately 10 fold. Removal of the first two N-terminal amino acids (Met-Leu) totally abolished SHAAGtide's activity on FPRL1. Conversely, removal of the C-terminal three amino residues (AAG) from SHAAGtide had no effect on its activity on FPRL1. Removal of the C-terminal six residues (LSHAAG) reduced the peptide's potency only 3-fold. Many other purported naturally-occurring FPRL1 ligands, including serum amyloid A (SAA), beta-amyloid protein 42, lipoxin A4 and the bacterial tripeptide fMLP were tested.

The subject of test [3] is human monocytes. Briefly: Calcium mobilization in freshly isolated human monocytes. To be noted: for calcium mobilization: undigested chemokine or peptide, 100 nM (CCL23β up to 250 nM). The protocol: (§2) Calcium Mobilization Assay. Cells were loaded for 1 hour with 2 μM indo-1/AM dye (Molecular Probes, Eugene, Oreg.) in culture medium, then washed with 10 ml PBS and resuspended at 10^6/ml in HBSS containing 1% FBS. Cytosolic calcium responses were determined using a Photon Technology International (Lawrenceville, N.J.) fluorimeter, with excitation at 350 nm and dual emission at 400 and 490 nm. Alternatively, cells were loaded with 5 μg/ml Fluo-4 AM dye (Molecular Probes, Eugene, Oreg.), then washed and analyzed on a Fluorometric Imaging Plate Reader 384 (FLIPR^384 Molecular Devices, Sunnyvale, Calif.), with 505 nm excitation and 530 nm emission.
as §1

Test [4] has as its system human neutrophils. Briefly: Calcium mobilization in freshly isolated human neutrophils. To be noted: undigested chemokine or peptide (100 nM). The protocol: as §2, §1

On to MLWRRKIGPQMTLSHAAG [SHAAGtide], for which, in test [1], the chemotaxis result is “vigorous chemotaxis”. In addition, in test [2], the “calcium mobilization in the FPRL1 transfectant” value is “fully effective”. Also, the “Designation and FPRL1 Activity” value in test [2] (SHAAGtide and truncated/other variants) is “sequence; high”. In addition, the calcium mobilization entry in test [3] and in test [4] was “equipotent to CCL23β Δ24” in each case.

B1: CCL23β Δ24: truncated form of CCL23β lacking the 24-residue N-terminal domain, beginning with the SHAAGtide insertion (protein, listed as Homo sapiens)
chain: MLWRRKIGPQMTLSHAAGFHATSADCCISYTPRSIPCSLLESYFETNSECSKPGVIFLTKKGRRFCANPSDKQVQVCMRMLKLDTRIKTRKN
Take B1: the chemotaxis entry in test [1] is recorded as “vigorous chemotaxis”. For the same molecule, the “calcium mobilization in the FPRL1 transfectant” value in test [2] is on record as “fully effective”. Further, in test [3] (both at 100 nM), the “magnitude of calcium signal versus CCL15 Δ24/leukotactin” value was “at least two fold higher”. Moreover, the calcium mobilization result in test [3] is “particularly strong and sustained calcium profile”; in test [4] it was “very robust calcium response”.
